We go through six compounds from patent publication US20160152976A1, “COMPOUND ADMINISTRATION PRECURSOR AND MEDICAMENT CARRIER PREPARATION” (HitGen LTD., priority 2013, published 2016).

{C12NH2} = amino-(CH2)12 linker attached through a phosphate; {C12NH2-P} = aminododecyl phosphate linker; {FITC} = fluorescein isothiocyanate label

Data set [1] has as its system HepG2 cells. The data set is described as follows: Transmembrane transfer of DNA/RNA fragments and drug-delivery precursors into HepG2 cells, laser confocal microscope. Format: cell-based. The following applies: 4 nmol, X-tremeGENEsiRNA transfection reagent, 6 h, laser confocal microscope (FIG. 11).
Experimental: 24 h before transfer, the HepG2 cells in the phase of logarithmic growth were digested with trypsin; a culture medium containing 10% serum was used for adjusting the cell density to 0.5×10^6 cells/mL; and the cells were inoculated again in a cell culture dish of 15 cm and cultured in a culture incubator containing 5% CO2 at 37° C. The cells may be used for experiments when the cell density reaches 60% to 70% 24 h later.
4 nmol of the above-mentioned single-stranded or double-stranded DNA/RNA fragments in different sequences and various drug-delivery precursors was added to a sterile centrifuge tube (tube A) of 15 mL, respectively, and uniformly mixed with Opti-MEM in a corresponding volume, with a total volume of 2 mL; the X-tremeGENEsiRNA reagent was shaken gently, and 160 μL of X-tremeGENEsiRNA reagent was mixed with 1.84 mL of Opti-MEM in another tube (tube B); and the solution in the tube A was mixed with the solution in the tube B, the mixture was slightly triturated by a pipette and incubated for 20 min at room temperature.
6 mL of RPMI-1640 serum-free culture medium was added to the mixture and mixed uniformly; the primary culture medium in the HepG2 cell culture dish was discarded, and slightly triturated with RPMI-1640 serum-free culture medium once; and then, the mixture was moved into the HepG2-PT cell culture dish, and cultured in a culture incubator containing 5% CO2 at 37° C.
Data set [2] deals with HepG2 cells. The following applies: original compound 2 linked to the fluorescent tag (FIG. 8A).
Experimental: 24 h before transfer, the HepG2 cells in the phase of logarithmic growth were digested with trypsin; a culture medium containing 10% serum was used for adjusting the cell density to 1.0×10^7cells/20 mL; and the cells were inoculated again in a cell culture dish of 15 cm and cultured in a culture incubator containing 5% CO2 at 37° C. The cells may be used for experiments when the cell density reaches 60% to 70% 24 h later.
6 mL of RPMI-1640 serum-free culture medium was added to the mixture and mixed uniformly; the primary culture medium in the HepG2 cell culture dish was discarded, and slightly triturated with. RPMI-1640 serum-free culture medium once; and then, the mixture was moved into the HepG2-PT cell culture dish, and cultured in a culture incubator containing 5% CO2 at 37° C.

For “5-NH2—(CH2)12—PO4-TGGGCTGGCCAAACTGCTG-3′-FITC (DNA, 5' {C12NH2}, 3' {FITC}, backbone not given here)”, in the data set with HepG2 cells [1], the “transfer into cells and positioning in the cells” value is “may be all transferred into cells by X-tremesiRNA, with most of them into the cytoplasm and a few of them into the cell nucleus”.

Regarding “5′-NH2—(CH2)2—PO4-A19-3′-FITC [polyA of 19 bp]”, the “transfer into cells and positioning in the cells” value in the data set with HepG2 cells [1] is “may be all transferred into cells by X-tremesiRNA, with most of them into the cytoplasm and a few of them into the cell nucleus”.

“5′-NH2—(CH2)12—PO4-A5-3′-FITC [polyA of 5 bp]”: the “transfer into cells and positioning in the cells” value with HepG2 cells [1] was “may be all transferred into cells by X-tremesiRNA, with most of them into the cytoplasm and a few of them into the cell nucleus”. Still for that read-out and setting: in the case of “5′-NH2—(CH2)12—PO4-A38-3′-FITC [polyA of 38 bp]” it was “may be all transferred into cells by X-tremesiRNA, with most of them into the cytoplasm and a few of them into the cell nucleus”; in that of “5′-NH2—(CH2)12—PO4TGGGCTGGCCAAACTGCTG-3′-FITC: 5′-CAGCAGTTTGGCCAGCCCA-3′ (chain 1: DNA, 5' {C12NH2-P}, 3' {FITC}, backbone not given here; chain 2: DNA, backbone not given here)”, “may be all transferred into cells by X-tremesiRNA, with most of them into the cytoplasm and a few of them into the cell nucleus”. Take `C#CCN(CC1CCN(C(=O)Nc2ccccc2)CC1)c1cccc(-c2sc(C(=O)O)c(OCC(=O)O)c2Br)c1` [compound 2, 4-bromo-3-oxoacetic acid-5-(3-(((1-phenylcarbamoylpiperidine)-4-methyl)-N-propargylamine)phenyl)thiophene-2-formic acid]: the entry into cells entry in the data set on HepG2 cells [2] is “can not enter the cells”.
